Source: PubChem BioAssay AID1033 (Sanford-Burnham Center for Chemical Genomics, 2008)
Activity calls are given as the source filed them. No rule for the calls is given here.

biological target: Chaperone protein DnaK (Escherichia coli (strain K12)) (UniProt P0A6Y8); assay: E. coli DnaK SBD ligand binding – biophysical, NMR, chaperone (AID 1033); conditions: Purified DnaK SBD
Sequence (P0A6Y8 whole entry, looked up): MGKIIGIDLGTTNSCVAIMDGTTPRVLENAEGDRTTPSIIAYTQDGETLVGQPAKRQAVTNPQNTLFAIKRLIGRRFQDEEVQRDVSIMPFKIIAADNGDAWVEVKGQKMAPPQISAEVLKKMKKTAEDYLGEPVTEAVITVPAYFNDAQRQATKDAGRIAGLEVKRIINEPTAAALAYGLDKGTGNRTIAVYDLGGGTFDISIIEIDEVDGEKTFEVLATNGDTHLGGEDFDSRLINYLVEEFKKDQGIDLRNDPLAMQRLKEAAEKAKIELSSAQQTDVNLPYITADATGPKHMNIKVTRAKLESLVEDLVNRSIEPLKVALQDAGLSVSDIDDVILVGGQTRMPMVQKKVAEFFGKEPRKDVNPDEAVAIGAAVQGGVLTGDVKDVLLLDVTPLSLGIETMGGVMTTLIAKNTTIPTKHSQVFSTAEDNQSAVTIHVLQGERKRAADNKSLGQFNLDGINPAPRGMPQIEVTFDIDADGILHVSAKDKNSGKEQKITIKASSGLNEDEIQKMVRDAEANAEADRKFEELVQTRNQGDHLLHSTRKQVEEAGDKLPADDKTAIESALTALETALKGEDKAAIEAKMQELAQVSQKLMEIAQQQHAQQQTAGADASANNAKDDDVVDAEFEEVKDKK

For `COc1cc2cc3c4cc(OC)c(OC)cc4cc[n+]3c(C)c2cc1OC`, which Kd is on record?
Its Kd is > 4 mM (inactive).

How did the Kd turn out when `CNS(=O)(=O)c1ccc2[nH]c(=O)[nH]c2c1` was run?
The Kd was > 4 mM (inactive).

`OCc1ccncc1` was tested. Which Kd did it give?
Its Kd is > 4 mM (inactive).

`COc1ccc(Cl)c(S(=O)(=O)N2CCCC2)c1` was tested. Which Kd did it give?
The Kd was > 4 mM (inactive).

Which Kd does the source give for `CSc1nc(-c2ccco2)nn1S(C)(=O)=O` here?
Its Kd is > 4 mM (inactive).

How did the Kd turn out when `Nc1ccc(-n2cccn2)cc1` was run?
Its Kd is > 4 mM (inactive).

For `COc1cccc(=O)c2c(C)n(C)c(C)c12`, which Kd is on record?
The Kd was > 4 mM (inactive).

`CN1CCC2(CC1)CC1CC3C=CC1(CN2)O3` (centres undefined) was tested. Which Kd did it give?
The Kd was > 4 mM (inactive).

Which Kd does the source give for `O=C(N1CCOCC1)N1CCN(c2ccccn2)CC1` here?
Its Kd is > 4 mM (inactive).

How did the Kd turn out when `CC(=O)Nc1cccc(N(C)S(C)(=O)=O)c1` was run?
Its Kd is > 4 mM (inactive).

For `O=c1c(O)c(-c2ccc(O)c(O)c2)oc2cc(O)ccc12`, which Kd is on record?
Its Kd is > 4 mM (inactive).

`NC(=O)CCS(=O)(=O)CCN1CCOCC1` was tested. Which Kd did it give?
The Kd was > 4 mM (inactive).

`CC(=O)Nc1cc2c(cc1C(=O)C(C)C)OCCO2` was tested. Which Kd did it give?
Its Kd is > 4 mM (inactive).

`O=C1NC(=S)N/C1=C\c1ccccc1F` was tested. Which Kd did it give?
Its Kd is > 4 mM (inactive).

`COCc1nn2c(N)c(C#N)cnc2c1-c1ccccc1` was tested. Which Kd did it give?
Its Kd is > 4 mM (inactive).

`COc1ccc2c(CC(=O)O)coc2c1` was tested. Which Kd did it give?
The Kd was > 4 mM (inactive).

Which Kd does the source give for `c1ccn(Cc2ccncc2)c1` here?
Its Kd is > 4 mM (inactive).

With `NC1=NC(=O)C(Cc2cccc([N+](=O)[O-])c2)S1` (centres undefined) as the compound, how does the Kd read?
The Kd was > 4 mM (inactive).

Which Kd does the source give for `COc1ccc(NC2=NCC(C)S2)cc1` (centres undefined) here?
The Kd was > 4 mM (inactive).

How did the Kd turn out when `O=C(O)CN1C(=O)c2cccc([N+](=O)[O-])c2C1=O` was run?
The Kd was > 4 mM (inactive).

How did the Kd turn out when `Cc1sc2nc(SC3CCOC3=O)[nH]c(=O)c2c1C` (centres undefined) was run?
Its Kd is > 4 mM (inactive).

How did the Kd turn out when `CC(CO)NC(=O)C1C=C2c3cccc4[nH]cc(c34)C[C@H]2N(C)C1` (some centres undefined) was run?
The Kd was > 4 mM (inactive).

For `O=C1CSC(=Nc2cccc(C(=O)O)c2)N1`, which Kd is on record?
The Kd was > 4 mM (inactive).

With `NC(=O)CC(=O)NC12CC3CC(CC(C3)C1)C2` as the compound, how does the Kd read?
Its Kd is > 4 mM (inactive).

For `Cc1nn2c(nc1=O)SCC2(O)c1ccccc1` (centres undefined), which Kd is on record?
The Kd was > 4 mM (inactive).

For `Cc1ccc(SCc2cc(=O)n3[nH]c(C)nc3n2)cc1`, which Kd is on record?
Its Kd is > 4 mM (inactive).

Which Kd does the source give for `O=C1NC2NC(=O)N(c3ccccc3)C2N1` (centres undefined) here?
The Kd was > 4 mM (inactive).

`O=C(c1ccncc1)N1CCN(C(=O)c2ccco2)CC1` was tested. Which Kd did it give?
The Kd was > 4 mM (inactive).

With `COC(=O)c1cccc(Cn2nnc3ccccc3c2=O)c1` as the compound, how does the Kd read?
The Kd was > 4 mM (inactive).

`CSc1ccccc1NC(=O)c1ccncc1` was tested. Which Kd did it give?
The Kd was > 4 mM (inactive).

With `O=S1(=O)CCC(NC(=S)N2CCOCC2)C1` (centres undefined) as the compound, how does the Kd read?
Its Kd is > 4 mM (inactive).

How did the Kd turn out when `NC1=NCc2ccccc21` was run?
Its Kd is > 4 mM (inactive).

Which Kd does the source give for `Cc1ccc2cc(CO)ccc2n1` here?
Its Kd is > 4 mM (inactive).

For `Cc1ccccc1NC(=O)/C=C\C(N)=O`, which Kd is on record?
The Kd was > 4 mM (inactive).

`Fc1cccc(Cl)c1CN1CCNCC1` was tested. Which Kd did it give?
The Kd was > 4 mM (inactive).

Which Kd does the source give for `C[n+]1ccn(C/C(N)=N/O)c1` here?
Its Kd is > 4 mM (inactive).

For `c1cncc(C2CCCCN2)c1` (centres undefined), which Kd is on record?
Its Kd is > 4 mM (inactive).

For `NCC(=O)c1ccccc1`, which Kd is on record?
The Kd was > 4 mM (inactive).

Which Kd does the source give for `N/C(=N/S(=O)(=O)c1cccs1)c1ccccc1` here?
Its Kd is > 4 mM (inactive).

For `CNC(=O)C(=O)NCc1ccc(C)cc1`, which Kd is on record?
Its Kd is > 4 mM (inactive).

How did the Kd turn out when `Cc1nc2ccccc2c(=O)n1NC(=O)Nc1ccccc1` was run?
The Kd was > 4 mM (inactive).

How did the Kd turn out when `CCCCCc1c2c(cc(O)c1C(=O)O)OC(=O)c1c(cc(OC)cc1C(=O)CCCC)O2` was run?
The Kd was > 4 mM (inactive).

Which Kd does the source give for `O=C(Nc1ccccc1N1CCCC1)c1cccnc1` here?
Its Kd is > 4 mM (inactive).

For `C[C@]12CCC3C(CC[C@H]4C[C@@H](O)CC[C@]34C)C1CCC2=O` (some centres undefined), which Kd is on record?
The Kd was > 4 mM (inactive).

For `COC(=O)C1[C@H]2C[C@H]3c4[nH]c5ccccc5c4CCN3C[C@@H]2CC[C@@H]1O` (some centres undefined), which Kd is on record?
Its Kd is > 4 mM (inactive).

Which Kd does the source give for `Cc1ccc2nc(SCC(=O)O)nc(C)c2c1` here?
Its Kd is > 4 mM (inactive).

How did the Kd turn out when `COc1ccc2c(=O)c(CC(=O)O)coc2c1` was run?
Its Kd is > 4 mM (inactive).

With `Nc1ccc(C(=O)NCC2CCCO2)cc1` (centres undefined) as the compound, how does the Kd read?
The Kd was > 4 mM (inactive).

`O=C(/C=C/C=C/c1ccc2c(c1)OCO2)N1CCCCC1` was tested. Which Kd did it give?
The Kd was > 4 mM (inactive).
